Assay results as given in patent publication US11186585B2 (priority 2018, dated 2021).
Values joined by “and” are separate entries in the source; they are usually repeats but may differ in a detail not shown here. Equal values may be shown once.

Columns and labels:
[1] = Stability in human plasma; conditions: 37° C., acceptance criteria: NLT than 20% of hydrolysis after 4 hrs
healthy volunteers [2] = assay: Double-blind trial, miosis after oral capsule; format: in vivo, human; conditions: for % MPE (miosis): oral, individual data, 33 45 mg, NB 35 mg, 39 68 mg
Protocol: Double-blind, NB hydrochloride and NB-39 controlled, trial of the antinociceptive effect of oral NB-33 in healthy volunteers. Each of the three healthy volunteers was assigned a set of 6 non-transparent gelatin capsules as follows: 2×NB hydrochloride (MW=393.4; 39 mg), 2×NB-33 (MW=451.6; 45 mg) and 2×NB-39 (MW=680.0; 68 mg). Each week a healthy volunteer would receive a pill from the assigned set in a random fashion and take it orally. At T=0 hr, 0.25 hr, 0.5 hr, 1 hr, 1.5 hr, 2 hr, 3 hr and 5 hr followed oral administration a heat pain threshold was measured (hot water at 50° C.) as well as miosis.
(§1) Following one week of a wash out period, each volunteer repeated the protocol until all pills from the assigned set were administered. The individual data for heat pain threshold as % MPE=[(test latency−baseline latency)/(baseline latency)]×100 and for miosis as % MPE=[(test diameter−baseline diameter)/(baseline diameter)]×100 are shown in Table 2 and Table 3 respectively.
(§2) Independent samples t-test was used to compare the means of % MPE analgesia and miosis in the two pairs of samples: NB-33 and NB and NB-33 and NB-39. All analyses were made using SPSS (v.25). • Bold indicates statistical significance at α=0.05

Sprague-Dawley rats = assay: Antinociceptive activity, cold ethanol tail-flick test after oral gavage; format: in vivo, rat
[3] = Stability in the simulated gastro-intestinal fluid (sGIF); conditions: 0.5% pepsine in 0.1N aqueous HCl, 37° C.; acceptance: NLT 80% of the derivative still intact after 4 hrs
healthy volunteers [4] = assay: Double-blind trial, heat pain threshold (hot water at 50° C.) after oral capsule; format: in vivo, human; conditions: for % MPE (analgesia): oral, individual data, 33 45 mg, NB 35 mg, 39 68 mg
Protocol: Double-blind, NB hydrochloride and NB-39 controlled, trial of the antinociceptive effect of oral NB-33 in healthy volunteers. […] Each week a healthy volunteer would receive a pill from the assigned set in a random fashion and take it orally. […]
as §1, §2

CCCCCCCCCCCCCCCCCCCCCC(=O)Oc1ccc2c3c1OC1C(O)CCC4(O)C(C2)N(CC2CCC2)CCC314 (stereo not drawn) [NB-39, 3-(cyclobutylmethyl)-4a,7-dihydroxy-2,3,4,4a,5,6,7,7a-octahydro-1H-4,12-methanobenzofuro[3,2-e]isoquinolin-9-yl docosanoate]
Stable in plasma [1]: No | % MPE (miosis) (healthy volunteers [2]; 0 hr (baseline)): 0.0 % MPE | % MPE (miosis) (healthy volunteers [2]; 0.25 hr): 10.3 % MPE and 0.0 % MPE and 25.0 % MPE and 12.5 % MPE and 20.0 % MPE and 3.1 % MPE | % MPE (miosis) (healthy volunteers [2]; 0.5 hr): 14.9 % MPE and 0.0 % MPE and 16.7 % MPE and 9.4 % MPE (2×) and 26.7 % MPE | % MPE (miosis) (healthy volunteers [2]; 1 hr): 37.9 % MPE and 6.7 % MPE and 22.2 % MPE and 18.8 % MPE and 36.7 % MPE and 21.9 % MPE | % MPE (miosis) (healthy volunteers [2]; 1.5 hr): 37.9 % MPE and 6.7 % MPE and 33.3 % MPE and 21.9 % MPE and 23.3 % MPE and 25.0 % MPE | % MPE (miosis) (healthy volunteers [2]; 2 hr): 14.9 % MPE and 0.0 % MPE and 25.0 % MPE and 17.2 % MPE and 16.7 % MPE and 6.2 % MPE | % MPE (miosis) (healthy volunteers [2]; 2.5 hr): 14.9 % MPE and 6.7 % MPE and 11.1 % MPE and 6.2 % MPE and 13.3 % MPE and 9.4 % MPE | % MPE (miosis) (healthy volunteers [2]; 3 hr): 24.1 % MPE and 0.0 % MPE (3×) and 11.1 % MPE and 3.3 % MPE | % MPE (miosis) (healthy volunteers [2]; 5 hr): 3.4 % MPE and 0.0 % MPE (2×) and 11.1 % MPE and 13.3 % MPE and 3.1 % MPE | effect on pupil dilation (miosis) in humans, in words (healthy volunteers [2]; oral administration): did not significantly affect | analgesia in rats, in words (Sprague-Dawley rats; given orally, compared with equivalent dose of Nalbuphine (parent opioid)): inferior | Analgesia (rat) (Sprague-Dawley rats; oral gavage in sesame oil, 60 uM/kg, one dose, tail-flick at −20° C., cutoff 40 seconds): Inactive | Stable in sGIF [3]: Yes | % MPE (analgesia) (healthy volunteers [4]; 0 hr (baseline)): 0.0 % MPE | % MPE (analgesia) (healthy volunteers [4]; 0.25 hr): 0.0 % MPE (2×) and 17.6 % MPE and 13.3 % MPE and 6.2 % MPE and 8.3 % MPE | % MPE (analgesia) (healthy volunteers [4]; 0.5 hr): 10.0 % MPE and 11.8 % MPE and 40.0 % MPE and 6.2 % MPE and 55.6 % MPE and 15.0 % MPE | % MPE (analgesia) (healthy volunteers [4]; 1 hr): 10.0 % MPE and 5.9 % MPE and 73.3 % MPE and 10.8 % MPE and 11.1 % MPE and 5.0 % MPE | % MPE (analgesia) (healthy volunteers [4]; 1.5 hr): 15.0 % MPE and 11.8 % MPE and 93.3 % MPE and −7.7 % MPE and 19.4 % MPE and 5.0 % MPE | % MPE (analgesia) (healthy volunteers [4]; 2 hr): 10.0 % MPE and 23.5 % MPE and 93.3 % MPE and 33.8 % MPE and 0.0 % MPE (2×) | % MPE (analgesia) (healthy volunteers [4]; 2.5 hr): 5.0 % MPE (2×) and 0.0 % MPE and 46.7 % MPE and −6.2 % MPE and 16.7 % MPE | % MPE (analgesia) (healthy volunteers [4]; 3 hr): 10.0 % MPE and 11.8 % MPE and 40.0 % MPE and 9.2 % MPE and 0.0 % MPE (2×) | % MPE (analgesia) (healthy volunteers [4]; 5 hr): 0.0 % MPE (2×) and 6.7 % MPE and −9.2 % MPE and −2.8 % MPE and 5.0 % MPE | analgesia in humans, in words (healthy volunteers [4]; given orally, compared with equivalent dose of Nalbuphine (NB) and NB-39): inferior
